#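 1) Cells in 96-well plates. 2) Compound, 48 h, 5 concentrations. 3) Linear interpolation between surrounding doses. 4) Unreached endpoint = highest concentration. Here, GI50 denotes the concentration required for 50% inhibition of growth.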 Active and inactive are the calls of the source. No stated cut-off is given here; in the data, active = GI50 up to about 1.1 µM and inactive = higher.
# Columns and labels:
# Assay in all cases: NCI anticancer screen, dose series, 48 h
# OVCAR-5 = system: OVCAR-5
# 786-0 = system: 786-0
# A549 = system: A549
# ACHN = system: ACHN
# PC-3 = system: PC-3
# EKVX = system: EKVX
# NCI/ADR-RES = system: NCI/ADR-RES
# OVCAR-8 = system: OVCAR-8
# SR = system: SR
# SF-295 = system: SF-295
# SK-MEL-28 = system: SK-MEL-28
# UO-31 = system: UO-31
# HL-60 = system: HL-60
# CCRF-CEM = system: CCRF-CEM
# OVCAR-4 = system: OVCAR-4
# LOX IMVI = system: LOX IMVI
# IGROV-1 = system: IGROV-1
# HT-29 = system: HT-29
# UACC-257 = system: UACC-257
# NCI-H226 = system: NCI-H226
# MDA-MB-435 = system: MDA-MB-435
# K562 = system: K562
# RXF 393 = system: RXF 393
# KM12 = system: KM12
# Hs-578T = system: Hs-578T
# SF-539 = system: SF-539
# A498 = system: A498
# U-251 = system: U-251
# HOP-92 = system: HOP-92
# T47D = system: T47D
# UACC-62 = system: UACC-62
# MOLT-4 = system: MOLT-4
# MCF7 = system: MCF7
# SF-268 = system: SF-268
# TK-10 = system: TK-10
# SW-620 = system: SW-620
# M14 = system: M14
# NCI-H23 = system: NCI-H23
# COLO 205 = system: COLO 205
# RPMI-8226 = system: RPMI-8226
# MDA-MB-231 = system: MDA-MB-231
# CAKI-1 = system: CAKI-1
# HCC 2998 = system: HCC 2998
# HOP-62 = system: HOP-62
# OVCAR-3 = system: OVCAR-3
# SK-OV-3 = system: SK-OV-3
# SK-MEL-2 = system: SK-MEL-2
# NCI-H460 = system: NCI-H460
# MDA-N = system: MDA-N
# SK-MEL-5 = system: SK-MEL-5
# Malme-3M = system: Malme-3M
# HCT-15 = system: HCT-15
# DU-145 = system: DU-145
# SNB-75 = system: SNB-75
# SNB-19 = system: SNB-19
compound,measurement,setting,value
CCOC(C)O[C@H]1C(=O)OCC1(C)C (stereo not given in full),GI50,OVCAR-5,> 100 µM (inactive)
same,GI50,786-0,> 100 µM (inactive)
same,GI50,A549,> 100 µM (inactive)
same,GI50,ACHN,> 100 µM (inactive)
same,GI50,PC-3,> 100 µM (inactive)
same,GI50,EKVX,> 100 µM (inactive)
same,GI50,NCI/ADR-RES,> 100 µM (inactive)
same,GI50,OVCAR-8,> 100 µM (inactive)
same,GI50,SR,> 100 µM (inactive)
same,GI50,SF-295,> 100 µM (inactive)
same,GI50,SK-MEL-28,> 100 µM (inactive)
same,GI50,UO-31,> 100 µM (inactive)
same,GI50,HL-60,> 100 µM (inactive)
same,GI50,CCRF-CEM,> 100 µM (inactive)
same,GI50,OVCAR-4,> 100 µM (inactive)
same,GI50,LOX IMVI,> 100 µM (inactive)
same,GI50,IGROV-1,> 100 µM (inactive)
same,GI50,HT-29,> 100 µM (inactive)
same,GI50,UACC-257,> 100 µM (inactive)
same,GI50,NCI-H226,> 100 µM (inactive)
same,GI50,MDA-MB-435,> 100 µM (inactive)
same,GI50,K562,80.7 µM (inactive)
same,GI50,RXF 393,> 100 µM (inactive)
same,GI50,KM12,> 100 µM (inactive)
same,GI50,Hs-578T,> 100 µM (inactive)
same,GI50,SF-539,> 100 µM (inactive)
same,GI50,A498,> 100 µM (inactive)
same,GI50,U-251,> 100 µM (inactive)
same,GI50,HOP-92,> 100 µM (inactive)
same,GI50,T47D,> 100 µM (inactive)
same,GI50,UACC-62,> 100 µM (inactive)
same,GI50,MOLT-4,34.9 µM (inactive)
same,GI50,MCF7,> 100 µM (inactive)
same,GI50,SF-268,> 100 µM (inactive)
same,GI50,TK-10,> 100 µM (inactive)
same,GI50,SW-620,> 100 µM (inactive)
same,GI50,M14,> 100 µM (inactive)
same,GI50,NCI-H23,> 100 µM (inactive)
same,GI50,COLO 205,> 100 µM (inactive)
same,GI50,RPMI-8226,> 100 µM (inactive)
same,GI50,MDA-MB-231,> 100 µM (inactive)
same,GI50,CAKI-1,> 100 µM (inactive)
same,GI50,HCC 2998,> 100 µM (inactive)
same,GI50,HOP-62,> 100 µM (inactive)
same,GI50,OVCAR-3,> 100 µM (inactive)
same,GI50,SK-OV-3,> 100 µM (inactive)
same,GI50,SK-MEL-2,> 100 µM (inactive)
same,GI50,NCI-H460,> 100 µM (inactive)
same,GI50,MDA-N,> 100 µM (inactive)
same,GI50,SK-MEL-5,> 100 µM (inactive)
same,GI50,Malme-3M,> 100 µM (inactive)
same,GI50,HCT-15,> 100 µM
same,GI50,DU-145,> 100 µM (inactive)
same,GI50,SNB-75,> 100 µM (inactive)
same,GI50,SNB-19,> 100 µM (inactive)

# From ChEMBL document CHEMBL1201862, “PubChem BioAssay data set” (2004)
